Data reported in publication PMC10525516, “Novel NADPH Oxidase-2 Inhibitors as Potential Anti-Inflammatory and Neuroprotective Agents” (Antioxidants, 2023).
Like-named read-outs stand apart in the source and are kept apart here.

Columns and labels:
dHL60 cells = experiment: Cell Titer Glo 2.0 cytotoxicity (ATP) assay in PMA-stimulated dHL60 cells; assay type: cell-based, human
Protocol: The cytotoxicity of the inhibitors was tested by measuring the amount of ATP in the wells containing PMA-stimulated dHL60 cells and the candidate inhibitors. Cells were prepared as described for the plate reader-based measurements for H2O2, except that the cells were maintained with the inhibitors in a CO2-free incubator at 37 °C for 2.5 h to mirror the conditions during the fluorescence-based monitoring of H2O2 described above. After incubation, cells (100 µL/well) were transferred to white 96-well plates (Greiner, Kremsmünster, Austria), and the total cellular ATP amount was determined using the Cell Titer Glo 2.0 (Promega) cytotoxicity assay (100 µL/well) by measuring the luminescence intensity using a Beckman Coulter DTX880 plate reader.

[1] = Plasma and brain pharmacokinetics in Sprague Dawley rats; assay type: in vivo
Protocol: Blood samples were collected into labeled microtubes containing dipotassium EDTA solution (20%) as an anticoagulant. Plasma was immediately harvested from the blood by centrifugation at 4000 rpm for 10 min at 4 ± 2 °C and stored below −70 °C until bioanalysis. After isolation, brain tissue samples were rinsed three times in ice cold normal saline (for 5–10 s/rinse using ~5–10 mL normal saline in disposable petri dishes for each rinse) and dried on blotting paper. Tissue samples were homogenized using ice-cold phosphate-buffered saline (pH 7.4). The total homogenate volume (µL) was three times the tissue weight (mg). All homogenates were stored below −70 ± 10 °C until bioanalysis. Concentrations of TG15-132 in plasma and brain samples were determined by fit-for-purpose liquid chromatography with the tandem mass spectrometry method (Sai-Life, Hyderabad, India). Phoenix WinNonlin (version 8.0, Certara, Princeton, NJ, USA) was used to analyze the pharmacokinetic parameters.
Rapid metabolism and the inability to cross the BBB represent major obstacles in the application of bioactive agents in neurodegenerative diseases. Based on the premise that Nox2 plays a major role in oxidative damage and exacerbates neurodegenerative diseases, we envision applications of brain-permeable Nox2 inhibitors in mechanistic studies in vivo, and, long-term, in the development of novel therapeutic strategies. Therefore, we performed in vivo pharmacokinetics studies to determine the time profile of plasma concentration and accumulation of TG15-132 in the brain tissue of Sprague Dawley rats and C57BL6 mice.

Kp at 8 h ([1]; rat, brain, ip, 20 mg/kg i.p., up to 8 h after administration, read-out: brain-to-plasma ratio): > 10
half-life ([1]; rat, brain, ip, single dose 20 mg/kg i.p., read-out: brain half-life (converted)): 5.6 h
AUC(0-inf) ([1]; rat, plasma, ip, single dose 20 mg/kg i.p.): 10200 ng·h/mL
half-life ([1]; rat, plasma, ip, single dose 20 mg/kg i.p., read-out: plasma half-life (converted)): 3.7 h
clearance rate ([1]; single dose 20 mg/kg i.p.): 32.8 mL/min/kg
SMILES: CN(C)CCCn1c(SCCc2c[nH]c3ccccc23)nc2ccc(F)cc2c1=O [TG15-132]
IC50 (dHL60 cells; Homo sapiens, Cell Titer Glo 2.0, PMA-stimulated dHL60 cells, 2.5 h with inhibitor, unit not printed in Table 3, taken from text, read-out: IC50, Viability Assay): 34.5 ± 6 µM
cell viability at concentrations showing Nox2 inhibitory potency (dHL60 cells; dHL60 cells, Figure 3D,E): no decrease in cell viability
